# Legend:
# [1] = test system: advanced breast cancer and a germline BRCA alteration; design: method as in PMID 30110579; conditions: EMBRACA, cited from earlier work
# [2] = test system: advanced solid tumors; assay: Antitumor activity: best overall response / unconfirmed objective response by investigator assessment; type: in vivo, human
# Protocol: Tumor assessments were performed on Day 29 and every 8 weeks thereafter for the initial 12 cycles, regardless of any dose interruptions or dose delays, and then performed per local standard practice after completion of Cycle 12. […] Unconfirmed objective response by investigator assessment was defined as a complete (disappearance of all target lesions) or partial (at least 30% decrease in the sum of diameters of target lesions) response recorded from Cycle 1 Day 1 until disease progression, start of subsequent anticancer therapy, or death due to any cause. Given the exploratory nature of the efficacy endpoint, confirmation of response was not required. Duration of response, calculated as the time from first documentation of complete response or partial response to date of first documentation of objective progression or death, was only calculated for the subgroup of patients with an unconfirmed objective response. All patients who had received at least 1 dose of talazoparib were included in the safety and efficacy analysis sets. All treated patients with at least 1 PK concentration in the single-dose and/or multiple-dose PK part were included in the PK concentration analysis set, and all treated patients with at least 1 of the PK parameters of primary interest in the single-dose and/or multiple-dose PK part were included in the PK parameter analysis set. All patients in the PK parameter analysis set who completed both the single-dose PK and multiple-dose PK parts without major protocol deviations were included in the PK evaluable analysis set.
# [3] = design: method as in PMID 35907135; conditions: 19 Japanese patients with germline BRCA-mutated advanced breast cancer; cited from earlier work
# [4] = clinical; conditions: human, in vivo, po, 1 mg
# Protocol: A single dose of talazoparib 1 mg was administered orally on Day –9. From Cycle 1 Day 1, patients received talazoparib 1 mg QD orally on a continuous basis at approximately the same time each day (preferably in the morning) until disease progression, death, unacceptable toxicity, or withdrawal of consent. Dose interruptions or reductions were not required unless toxicity persisted at grade 2 for ≥7 days. Daily dosing was paused for grade ≥3 hematologic toxicities. Supportive care including blood products was allowed as appropriate per local guidance. To minimize any drug-drug interaction effects relating to talazoparib exposure and potential alteration to efficacy, co-medication with P-glycoprotein (P-gp) inhibitors and inducers was prohibited for Cycle 1 when intensive PK assessments were scheduled after both single-dose and multiple-dose talazoparib administrations. After Cycle 1, only potent P-gp inhibitors were prohibited to accommodate more co-medication options.
# To assess the single-dose PK profile, patients took talazoparib on Day –9 of a 9-day (216 h) lead-in period; blood samples were collected at pre-dose and at 0.5, 1, 2, 4, 8, 24, 48, 96, 168, and 216 h post-dose. For the steady-state PK profile, serial samples after multiple doses of talazoparib were collected on Day 22 of the first cycle at pre-dose and at 0.5, 1, 2, 4, 8, and 24 h post-dose. Prior to serial PK sampling (Cycle 1 Day –9, Cycle 1 Day 22), patients were required to fast for at least 8 h before dosing and they had to continue fasting for 2 h after dosing to control the variability due to food effect on Cmax. For the other PK sampling points, talazoparib could have been taken with or without food. On clinic visit days, talazoparib was administered after completion of a pre-dose blood sampling for PK and assessments. Blood samples of approximately 3 mL, to provide a minimum of 1.5 mL plasma, for measurement of talazoparib concentrations were collected.
# Talazoparib PK parameters were calculated for each patient and each treatment, as applicable, using non-compartmental analysis of concentration-time data. Summary statistics were calculated by setting concentration values below the lower limit of quantification to zero.
# [5] = design: method as in PMID 34388386; conditions: cited from earlier work
# [6] = 11 patients with measurable disease at baseline
# [7] = patients with measurable disease N=11
compound,measurement,setting,value
Cn1ncnc1[C@H]1c2n[nH]c(=O)c3cc(F)cc(c23)N[C@@H]1c1ccc(F)cc1 [talazoparib],Hazard ratio for disease progression or death,"[1]; versus standard chemotherapy, 95% CI 0.41–0.71, P < 0.001",0.54
same,Median progression-free survival,[1]; vs 5.6 months standard chemotherapy,8.6 months
same,Patients progressed by data cut-off,[2]; [6],54.5%
same,Patients with stable disease,[2]; [6],36.4%
same,ORR (best overall response of partial response),"[2]; 11 patients with measurable disease at baseline, 95% CI 0.2–41.3",9.1%
same,Patients with non-complete response/non-progressive disease,[2]; 15 treated patients,6.7%
same,Patients with partial response,[2]; 15 treated patients,6.7%
same,Patients with stable disease,[2]; 15 treated patients,26.7%
same,Unconfirmed objective response rate (investigator-assessed),"[2]; 15 treated patients, 95% CI 0.2–31.9",6.7%
same,Disease control based on best overall response,"[2]; 15 treated patients, 95% CI 16.3–67.7",40.0%
same,Disease control rate,[2]; 95% CI 16.7–76.6,45.5%
same,Best overall response: Complete response,[2]; efficacy analysis set N=15,0 n (%)
same,Best overall response: Non-complete response/non-progressive disease,[2]; efficacy analysis set N=15,1 (6.7) n (%)
same,Best overall response: Not evaluable,[2]; efficacy analysis set N=15,2 (13.3) n (%)
same,Best overall response: Partial response,[2]; efficacy analysis set N=15,1 (6.7) n (%)
same,Best overall response: Progressive disease,[2]; efficacy analysis set N=15,7 (46.7) n (%)
same,Best overall response: Stable disease,[2]; efficacy analysis set N=15,4 (26.7) n (%)
same,Disease control,"[2]; efficacy analysis set N=15, CR, PR, SD and non-CR/non-PD","6 (40.0 [16.3–67.7]) n (%, [95% CI])"
same,Objective response,"[2]; efficacy analysis set N=15, complete and partial responses, Clopper-Pearson CI","1 (6.7 [0.2–31.9]) n (%, [95% CI])"
same,Best overall response: Complete response,[2]; [7],0 n (%)
same,Best overall response: Non-complete response/non-progressive disease,[2]; [7],0 n (%)
same,Best overall response: Not evaluable,[2]; [7],0 n (%)
same,Best overall response: Partial response,[2]; [7],1 (9.1) n (%)
same,Best overall response: Progressive disease,[2]; [7],6 (54.5) n (%)
same,Best overall response: Stable disease,[2]; [7],4 (36.4) n (%)
same,Disease control,[2]; [7],"5 (45.5 [16.7–76.6]) n (%, [95% CI])"
same,Duration of response,"[2]; the one responder, measurable disease at baseline",114 days
same,Geometric mean Ctrough (steady-state trough concentrations),[3],3.346 ng/mL
same,AUC,[4],86.5 ng·h/mL
same,AUC(0-inf),[4],208 ng·h/mL
same,AUC(0-t),[4],172 ng·h/mL
same,Cmax,[4],8.51 ng/mL
same,Tmax,[4],1.9 h
same,Vd/F,[4],457 L
same,half-life,[4],67 ± 11.8 h
same,Grade 3–4 TEAE: neutropenia,"[5]; TALAPRO-1, 10/127",8%
same,Grade 3–4 TEAE: thrombocytopenia,"[5]; TALAPRO-1, 11/127",9%
same,Grade 3–4 TEAE: anemia,"[5]; TALAPRO-1, 39/127",31%

# Reference: article PMC10290043, “Pharmacokinetics, safety, and antitumor activity of talazoparib monotherapy in Chinese patients with advanced solid tumors” (Investigational New Drugs, 2023)
